Active and inactive are the calls of the source. No cut-off for these calls is given here.
Key:
[1] = biological target: 5-hydroxytryptamine receptor 2B (Homo sapiens, UniProt P41595); assay: Inhibition of 5HT2B receptor (unknown origin)
[2] = biological target: Adenosine receptor A2a (Homo sapiens, UniProt P29274); assay: Inhibition of A2A receptor (unknown origin)
[3] = biological target: T1, Mitogen-activated protein kinase kinase kinase 5 (Mus musculus) (UniProt O35099); assay: In vivo inhibition of ASK1 in Tg4510 mouse model of Alzheimer's disease assessed as reduction in KC/GRO levels in cortex at 3 to 30 mg/kg, po BID for 3 days measured after 4 hrs post last dose by ELISA; format: functional, organism-based; details: dose 3-30 mg/kg, time 3.0 day
T1 sequence (whole entry): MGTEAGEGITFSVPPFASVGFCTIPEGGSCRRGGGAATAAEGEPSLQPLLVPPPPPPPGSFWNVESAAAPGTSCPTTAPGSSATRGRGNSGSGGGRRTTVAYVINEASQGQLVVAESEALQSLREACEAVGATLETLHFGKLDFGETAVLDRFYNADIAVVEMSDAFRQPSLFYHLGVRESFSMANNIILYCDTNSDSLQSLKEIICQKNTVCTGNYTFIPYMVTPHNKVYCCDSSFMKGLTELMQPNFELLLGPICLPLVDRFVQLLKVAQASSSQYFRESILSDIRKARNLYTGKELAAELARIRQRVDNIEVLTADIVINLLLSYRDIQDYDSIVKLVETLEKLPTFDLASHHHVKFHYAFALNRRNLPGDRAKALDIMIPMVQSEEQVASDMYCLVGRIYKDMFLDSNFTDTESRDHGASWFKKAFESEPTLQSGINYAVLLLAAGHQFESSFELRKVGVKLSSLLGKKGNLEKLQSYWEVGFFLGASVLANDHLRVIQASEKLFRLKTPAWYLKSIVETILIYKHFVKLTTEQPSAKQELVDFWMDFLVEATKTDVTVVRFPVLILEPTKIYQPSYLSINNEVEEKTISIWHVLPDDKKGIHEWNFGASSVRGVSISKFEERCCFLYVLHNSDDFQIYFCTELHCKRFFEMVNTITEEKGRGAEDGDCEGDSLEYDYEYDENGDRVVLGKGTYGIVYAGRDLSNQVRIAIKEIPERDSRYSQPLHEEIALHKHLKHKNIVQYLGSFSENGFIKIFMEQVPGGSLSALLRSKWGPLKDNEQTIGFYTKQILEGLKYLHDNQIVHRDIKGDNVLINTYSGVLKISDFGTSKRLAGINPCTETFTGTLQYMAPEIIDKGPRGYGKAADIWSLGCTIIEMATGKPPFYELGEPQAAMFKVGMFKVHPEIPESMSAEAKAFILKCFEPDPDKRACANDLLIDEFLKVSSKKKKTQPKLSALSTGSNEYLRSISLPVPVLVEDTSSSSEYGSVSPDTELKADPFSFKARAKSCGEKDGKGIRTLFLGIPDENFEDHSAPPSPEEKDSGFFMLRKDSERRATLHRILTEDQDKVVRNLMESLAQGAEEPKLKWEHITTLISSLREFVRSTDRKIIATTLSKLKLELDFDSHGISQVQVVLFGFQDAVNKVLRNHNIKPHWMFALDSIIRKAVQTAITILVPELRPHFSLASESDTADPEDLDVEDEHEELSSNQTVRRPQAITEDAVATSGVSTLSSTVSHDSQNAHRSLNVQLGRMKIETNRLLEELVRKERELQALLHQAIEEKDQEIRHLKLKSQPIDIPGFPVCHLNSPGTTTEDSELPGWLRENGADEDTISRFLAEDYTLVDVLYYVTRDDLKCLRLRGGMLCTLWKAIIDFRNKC

[4] = biological target: T2, Mitogen-activated protein kinase kinase kinase 5 (Homo sapiens, UniProt Q99683); assay: Inhibition of ASK1 (unknown origin) using myelin basic protein as substrate preincubated for 20 mins followed by 33P-ATP addition and measured after 2 hrs
T2 sequence (Q99683 whole entry): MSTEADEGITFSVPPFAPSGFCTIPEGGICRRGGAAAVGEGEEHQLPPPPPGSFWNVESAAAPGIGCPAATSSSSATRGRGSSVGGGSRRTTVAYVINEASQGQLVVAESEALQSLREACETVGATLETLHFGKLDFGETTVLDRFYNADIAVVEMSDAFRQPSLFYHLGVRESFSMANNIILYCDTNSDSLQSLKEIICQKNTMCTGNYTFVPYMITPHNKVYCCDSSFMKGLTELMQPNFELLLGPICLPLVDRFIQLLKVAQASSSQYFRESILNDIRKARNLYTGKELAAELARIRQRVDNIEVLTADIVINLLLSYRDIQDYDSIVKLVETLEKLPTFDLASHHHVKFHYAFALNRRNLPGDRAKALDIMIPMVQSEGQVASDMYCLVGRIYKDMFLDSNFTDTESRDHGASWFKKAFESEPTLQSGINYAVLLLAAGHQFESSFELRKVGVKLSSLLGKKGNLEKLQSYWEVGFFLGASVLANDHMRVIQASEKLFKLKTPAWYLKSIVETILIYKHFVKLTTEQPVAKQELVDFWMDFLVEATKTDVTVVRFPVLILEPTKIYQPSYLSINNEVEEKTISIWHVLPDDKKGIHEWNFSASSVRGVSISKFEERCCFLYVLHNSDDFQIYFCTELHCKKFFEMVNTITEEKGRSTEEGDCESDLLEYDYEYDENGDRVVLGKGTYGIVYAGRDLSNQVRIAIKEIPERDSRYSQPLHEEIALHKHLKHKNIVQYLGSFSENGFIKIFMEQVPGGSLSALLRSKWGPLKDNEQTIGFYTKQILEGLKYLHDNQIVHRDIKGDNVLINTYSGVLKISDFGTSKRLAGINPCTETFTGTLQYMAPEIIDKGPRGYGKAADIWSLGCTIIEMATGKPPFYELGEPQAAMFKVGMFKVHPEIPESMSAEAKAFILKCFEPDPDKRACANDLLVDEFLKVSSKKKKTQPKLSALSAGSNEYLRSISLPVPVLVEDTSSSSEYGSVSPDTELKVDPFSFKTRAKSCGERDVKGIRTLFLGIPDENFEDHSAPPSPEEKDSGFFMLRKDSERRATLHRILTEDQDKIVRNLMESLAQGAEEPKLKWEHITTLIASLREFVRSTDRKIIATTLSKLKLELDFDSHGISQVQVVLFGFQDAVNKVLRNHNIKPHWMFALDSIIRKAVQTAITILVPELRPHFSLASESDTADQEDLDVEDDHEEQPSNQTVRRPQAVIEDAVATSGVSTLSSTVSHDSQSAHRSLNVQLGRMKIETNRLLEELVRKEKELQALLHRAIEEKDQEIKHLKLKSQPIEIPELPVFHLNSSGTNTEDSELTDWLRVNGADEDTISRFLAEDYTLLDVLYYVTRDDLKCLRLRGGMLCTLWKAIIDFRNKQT

[5] = biological target: T2, Mitogen-activated protein kinase kinase kinase 5; assay: Inhibition of full-length human ASK1 expressed in HEK293T cells assessed as reduction in autophosphorylation of ASK1 at […] residue incubated for 1 hr; format: cell-based
[6] = biological target: T1, Mitogen-activated protein kinase kinase kinase 5 (Mus musculus); assay: In vivo inhibition of ASK1 in Tg4510 mouse model of Alzheimer's disease assessed as reduction in IL-1beta levels in cortex at 3 to 30 mg/kg, po BID for 3 days measured after 4 hrs post last dose by ELISA; format: functional, organism-based; details: dose 3-30 mg/kg, time 3.0 day
[7] = biological target: T1, Mitogen-activated protein kinase kinase kinase 5 (Mus musculus); assay: In vivo inhibition of ASK1 in Tg4510 mouse model of Alzheimer's disease assessed as reduction in MCP-1 levels in cortex at 3 to 30 mg/kg, po BID for 3 days measured after 4 hrs post last dose by ELISA; format: functional, organism-based; details: dose 3-30 mg/kg, time 3.0 day

Sequence of Adenosine receptor A2a (P29274 whole entry): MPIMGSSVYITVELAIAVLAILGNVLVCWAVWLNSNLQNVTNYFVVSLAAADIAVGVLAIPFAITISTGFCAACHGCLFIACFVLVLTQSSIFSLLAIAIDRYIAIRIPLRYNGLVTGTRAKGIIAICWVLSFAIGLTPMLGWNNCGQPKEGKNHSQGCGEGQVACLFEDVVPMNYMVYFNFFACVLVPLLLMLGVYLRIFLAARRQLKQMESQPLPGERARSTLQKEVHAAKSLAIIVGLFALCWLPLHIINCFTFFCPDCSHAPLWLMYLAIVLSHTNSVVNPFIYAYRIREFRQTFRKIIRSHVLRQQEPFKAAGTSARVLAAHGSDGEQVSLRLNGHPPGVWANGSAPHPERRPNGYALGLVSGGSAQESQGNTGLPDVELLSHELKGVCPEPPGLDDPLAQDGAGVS
Sequence of 5-hydroxytryptamine receptor 2B (P41595 whole entry): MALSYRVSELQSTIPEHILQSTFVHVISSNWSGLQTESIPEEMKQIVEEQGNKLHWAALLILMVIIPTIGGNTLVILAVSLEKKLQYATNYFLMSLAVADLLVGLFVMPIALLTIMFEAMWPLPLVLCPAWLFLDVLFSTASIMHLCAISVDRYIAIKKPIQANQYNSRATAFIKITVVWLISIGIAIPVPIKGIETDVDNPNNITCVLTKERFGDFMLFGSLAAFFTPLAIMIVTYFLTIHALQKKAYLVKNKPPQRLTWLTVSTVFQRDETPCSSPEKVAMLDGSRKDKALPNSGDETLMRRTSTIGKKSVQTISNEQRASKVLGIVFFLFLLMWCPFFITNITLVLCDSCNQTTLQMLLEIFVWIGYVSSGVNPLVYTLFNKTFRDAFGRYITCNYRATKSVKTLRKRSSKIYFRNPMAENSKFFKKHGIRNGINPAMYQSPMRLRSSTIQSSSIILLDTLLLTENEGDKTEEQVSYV

- IC50 [1]: > 1000 nM
- IC50 [2]: > 1000 nM
- inhibition [3]: Active
- IC50 [4]: 7 nM
- IC50 [5]: 25 nM
- inhibition [6]: Active
- inhibition [7]: Active
Structure (SMILES): COc1ncc(F)cc1C(=O)Nc1cccc(-c2nncn2[C@@H](C)C(F)(F)F)n1
